Key:
[1] = target: T1, Amine oxidase [flavin-containing] B (Homo sapiens, UniProt P27338); assay: biochemical; format: cell-based, BTI-TN-5B1-4
T1 sequence (P27338 whole entry): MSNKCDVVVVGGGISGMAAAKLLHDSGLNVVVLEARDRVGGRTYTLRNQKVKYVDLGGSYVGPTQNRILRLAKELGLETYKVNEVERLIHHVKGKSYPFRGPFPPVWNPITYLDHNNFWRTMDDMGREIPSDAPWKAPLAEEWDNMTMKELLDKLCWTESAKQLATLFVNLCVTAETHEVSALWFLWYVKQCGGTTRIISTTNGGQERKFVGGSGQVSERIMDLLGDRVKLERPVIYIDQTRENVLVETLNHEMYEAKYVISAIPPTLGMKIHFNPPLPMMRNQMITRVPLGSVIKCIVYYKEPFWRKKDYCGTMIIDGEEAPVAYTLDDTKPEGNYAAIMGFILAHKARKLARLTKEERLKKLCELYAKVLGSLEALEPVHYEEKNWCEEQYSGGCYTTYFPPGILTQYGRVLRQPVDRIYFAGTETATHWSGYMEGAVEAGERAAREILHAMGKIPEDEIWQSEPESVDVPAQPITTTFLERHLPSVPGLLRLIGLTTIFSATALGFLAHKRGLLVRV
Description: Inhibition of human recombinant MAO-B expressed in baculovirus infected BTI-TN-5B1-4 cells assessed as production of hydrogen peroxide from p-tyramine after 15 mins by microplate fluorescence assay

Homo sapiens = species on record: Homo sapiens; assay: Selectivity ratio of IC50 for human recombinant MAO-A to IC50 for human recombinant MAO-B
[2] = target: T2, Amine oxidase [flavin-containing] A (Homo sapiens, UniProt P21397); assay: Inhibition of human recombinant MAO-A expressed in baculovirus infected BTI-TN-5B1-4 cells assessed as production of hydrogen peroxide from p-tyramine at 100 uM after 15 mins by microplate fluorescence assay; conditions: for inhibition (INH): human, bti-tn-5b1-4, 0.25 h, 100 µM; for inhibition at 100 µM: BTI-TN-5B1-4, human, 0.25 h
T2 sequence (P21397 whole entry): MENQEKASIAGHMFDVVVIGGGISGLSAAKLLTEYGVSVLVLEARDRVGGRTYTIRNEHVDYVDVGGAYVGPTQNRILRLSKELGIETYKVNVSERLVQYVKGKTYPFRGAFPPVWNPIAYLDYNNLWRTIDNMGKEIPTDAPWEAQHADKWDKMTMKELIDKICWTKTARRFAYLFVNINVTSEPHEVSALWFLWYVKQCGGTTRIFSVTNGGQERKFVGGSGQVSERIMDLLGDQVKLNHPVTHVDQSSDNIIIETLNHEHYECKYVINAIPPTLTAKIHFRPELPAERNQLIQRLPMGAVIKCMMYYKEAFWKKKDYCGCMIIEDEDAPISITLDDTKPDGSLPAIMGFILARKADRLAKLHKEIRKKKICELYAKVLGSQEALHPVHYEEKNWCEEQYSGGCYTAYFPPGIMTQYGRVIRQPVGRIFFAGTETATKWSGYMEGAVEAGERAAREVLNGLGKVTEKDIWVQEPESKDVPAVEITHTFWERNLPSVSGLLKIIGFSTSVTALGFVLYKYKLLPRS

[3] = Hydrolytic stability of the compound in phosphate buffer at pH 7.4 after 1 to 24 hrs by NMR spectroscopic analysis; format: physicochemical
[4] = Hydrolytic stability of the compound in acetonitrile after 1 to 24 hrs by NMR spectroscopic analysis; format: physicochemical
[5] = Hydrolytic stability of the compound in water after 1 to 24 hrs by NMR spectroscopic analysis; format: physicochemical
[6] = Hydrolytic stability of the compound in dimethyl sulfoxide after 1 to 24 hrs by NMR spectroscopic analysis; format: physicochemical
[7] = target: T2, Amine oxidase [flavin-containing] A; assay: Inhibition of human recombinant MAO-A expressed in baculovirus infected BTI-TN-5B1-4 cells assessed as production of hydrogen peroxide from p-tyramine after 15 mins by microplate fluorescence assay
[8] = target: T1, Amine oxidase [flavin-containing] B; assay: Inhibition of human recombinant MAO-B expressed in baculovirus infected BTI-TN-5B1-4 cells assessed as production of hydrogen peroxide from p-tyramine at 100 uM after 15 mins by microplate fluorescence assay; conditions: for inhibition at 100 µM: BTI-TN-5B1-4, human, 0.25 h; for inhibition (INH): human, bti-tn-5b1-4, 0.25 h, 100 µM

| IC50 [1] [µM] | Ratio IC50 (Homo sapiens) | inhibition (INH) [2] | Compound | also measured |
| --- | --- | --- | --- | --- |
| – | < 0.52 | – | CC(=O)c1cc2cc(Br)ccc2oc1=O | IC50 [7]: 51.6 µM; inhibition at 100 µM [8]: 40% |
| 18.1 | > 5.5 | Not Active | CCN(CC)c1ccc2cc(C(C)=O)c(=O)oc2c1 | – |
| – | – | Not Active | CCOC(=O)c1cc2ccc(O)cc2oc1=O | inhibition (INH) [8]: Not Active |
| – | < 0.4 | – | O=C(O)c1cc2cc(O)ccc2oc1=O | IC50 [7]: 40.2 µM; inhibition at 100 µM [8]: 40% |
| 42.1 | 0.93 | – | CC(=O)c1cc2cccc(O)c2oc1=O | IC50 [7]: 39.4 µM |
| 17.7 | > 5.6 | Not Active | CC(=O)c1cc2cc(Cl)ccc2oc1=O | – |
| 64.2 | > 1.6 | – | CC(=O)c1cc2cc(O)ccc2oc1=O | inhibition at 100 µM [2]: 40% |
| – | – | Not Active | COc1ccc2oc(=O)c(C(=O)O)cc2c1 | inhibition (INH) [8]: Not Active |
| 2.01 | > 50 | – | CC(=O)c1cc2c(ccc3ccccc32)oc1=O | inhibition at 100 µM [2]: 40% |
| 18 | 2.9 | – | O=C(c1ccccc1)c1cc2cc(O)ccc2oc1=O | IC50 [7]: 51.7 µM |
| – | – | Not Active | COc1ccc2cc(C(=O)O)c(=O)oc2c1 | inhibition at 100 µM [8]: 40% |
| 15.4 | > 6.5 | – | COc1ccc2cc(C(C)=O)c(=O)oc2c1 | inhibition at 100 µM [2]: 40% |
| 23.5 | > 4.3 | – | CCOC(=O)c1cc2ccc(OC)cc2oc1=O | inhibition at 100 µM [2]: 40% |
| 10.1 | 4.9 | – | CCOC(=O)c1cc2cc(O)ccc2oc1=O | IC50 [7]: 49.1 µM |
| – | – | Not Active | O=C(c1ccccc1)c1cc2ccc(O)cc2oc1=O | inhibition (INH) [8]: Not Active |
| – | – | Not Active | CC(=O)c1cc2ccc(O)cc2oc1=O | inhibition (INH) [8]: Not Active |
| 14.5 | > 6.9 | Not Active | CC(=O)c1cc2ccccc2oc1=O [3-ACETYLCOUMARIN] | – |
| – | – | Not Active | CC(=O)c1cc2cc(C)ccc2oc1=O | inhibition at 100 µM [8]: 40% |

Second part, the compound before the results:

| Compound | IC50 [1] [µM] | Ratio IC50 (Homo sapiens) | inhibition (INH) [2] | also measured |
| --- | --- | --- | --- | --- |
| CC(=O)c1cc2cc(Br)cc(Br)c2oc1=O | 0.2 | > 500 | Not Active | – |
| CCOC(=O)c1cc2ccc(OCc3ccccc3)cc2oc1=O | 0.00701 | > 14300 | Not Active | Stability [3]: Stable; Stability [4]: Stable; Stability [5]: Stable; Stability [6]: Stable |
| O=C(O)c1cc2ccc(OCc3cccc(Cl)c3)cc2oc1=O | 1.8 | > 55 | Not Active | – |
| CC(C)(C)c1ccc(COc2ccc3cc(C(=O)O)c(=O)oc3c2)cc1 | – | – | Not Active | inhibition (INH) [8]: Not Active |
| O=C(O)c1cc2cccc(O)c2oc1=O | – | < 0.6 | – | IC50 [7]: 59.6 µM; inhibition at 100 µM [8]: 40% |
| O=C(c1ccccc1)c1cc2cccc(O)c2oc1=O | 27.1 | 1.5 | – | IC50 [7]: 40.5 µM |
| O=C(c1ccccc1)c1cc2cc(Cl)cc(Br)c2oc1=O | – | – | Not Active | inhibition at 100 µM [8]: 40% |
| CCOC(=O)c1cc2ccc(OCc3cccc(Cl)c3)cc2oc1=O | 0.0612 | > 1630 | Not Active | Stability [3]: Stable; Stability [4]: Stable; Stability [5]: Stable; Stability [6]: Stable |
| O=C(O)c1cc2cc(Cl)cc(Br)c2oc1=O | – | – | Not Active | inhibition (INH) [8]: Not Active |
| O=C(c1ccccc1)c1cc2c(ccc3ccccc32)oc1=O | – | – | Not Active | inhibition (INH) [8]: Not Active |
| O=C(c1ccccc1)c1cc2cc(Br)ccc2oc1=O | – | – | Not Active | inhibition (INH) [8]: Not Active |
| CCOC(=O)c1cc2cc(OC)ccc2oc1=O | 21.6 | > 4.6 | Not Active | Stability [3]: Stable; Stability [4]: Stable; Stability [5]: Stable; Stability [6]: Stable |
| CCOC(=O)c1cc2ccc(N(CC)CC)cc2oc1=O | 45.5 | > 2.2 | Not Active | – |
| Cc1ccc2oc(=O)c(C(=O)c3ccccc3)cc2c1 | – | – | Not Active | inhibition at 100 µM [8]: 40% |
| O=C(O)c1cc2ccc(OCc3ccc(Cl)c(Cl)c3)cc2oc1=O | 0.41 | > 244 | Not Active | – |
| O=C(NNc1ccc(Cl)cc1)c1cc2ccccc2oc1=O | 1.19 | 40.4 | – | IC50 [7]: 48 µM |
| CCOC(=O)c1cc2cc(Cl)cc(Br)c2oc1=O | 17.5 | > 5.7 | Not Active | – |
| CC(=O)c1cc2cc(I)cc(I)c2oc1=O | – | – | Not Active | inhibition (INH) [8]: Not Active |

| Compound | IC50 [1] [µM] | Ratio IC50 (Homo sapiens) | inhibition (INH) [2] | also measured |
| --- | --- | --- | --- | --- |
| O=C(c1ccccc1)c1cc2cc(I)cc(I)c2oc1=O | – | – | Not Active | inhibition (INH) [8]: Not Active |
| O=C(NNc1ccccc1[N+](=O)[O-])c1cc2ccccc2oc1=O | – | < 0.39 | – | IC50 [7]: 39.6 µM; inhibition (INH) [8]: Not Active |
| COc1ccc2cc(C(=O)c3ccccc3)c(=O)oc2c1 | – | – | Not Active | inhibition at 100 µM [8]: 40% |
| O=C(c1ccccc1)c1cc2cc(Cl)ccc2oc1=O | – | – | Not Active | inhibition (INH) [8]: Not Active |
| CCOC(=O)c1cc2ccc(OCc3ccc(Cl)c(Cl)c3)cc2oc1=O | 0.00947 | > 10600 | Not Active | Stability [3]: Stable; Stability [4]: Stable; Stability [5]: Stable; Stability [6]: Stable |
| O=C(O)c1cc2cc(Br)cc(Br)c2oc1=O | – | – | Not Active | inhibition (INH) [8]: Not Active |
| CCN(CC)c1ccc2cc(C(=O)c3ccccc3)c(=O)oc2c1 | 23.8 | > 4.2 | Not Active | – |
| CC(=O)c1cc2cc(Cl)cc(Br)c2oc1=O | 0.14 | 394 | – | IC50 [7]: 55.2 µM |
| O=C(O)c1cc2ccc(OC3CCCCCC3)cc2oc1=O | 8.62 | > 11.6 | Not Active | – |
| NNC(=O)c1cc2ccccc2oc1=O | 0.00322 | > 31100 | Not Active | Stability [3]: Stable; Stability [4]: Stable; Stability [5]: Stable; Stability [6]: Stable |
| CCOC(=O)c1cc2cc(Br)cc(Br)c2oc1=O | – | – | Not Active | inhibition at 100 µM [8]: 40% |
| O=C(c1ccccc1)c1cc2cc(Br)cc(Br)c2oc1=O | – | – | Not Active | inhibition at 100 µM [8]: 40% |
| CCOC(=O)c1cc2cccc(O)c2oc1=O | 14.8 | 2.7 | – | IC50 [7]: 40.5 µM |
| CCOC(=O)c1cc2ccc(OCc3ccc(C(C)(C)C)cc3)cc2oc1=O | 3.75 | > 27 | Not Active | Stability [3]: Stable; Stability [4]: Stable; Stability [5]: Stable; Stability [6]: Stable |
| O=C(NNc1ccc([N+](=O)[O-])cc1[N+](=O)[O-])c1cc2ccccc2oc1=O | 56.1 | 1.08 | – | IC50 [7]: 60.5 µM |
| Cc1ccc(NNC(=O)c2cc3ccccc3oc2=O)cc1 | – | < 0.58 | – | IC50 [7]: 58.4 µM; inhibition (INH) [8]: Not Active |
| O=C(c1ccccc1)c1cc2ccccc2oc1=O | – | – | Not Active | inhibition (INH) [8]: Not Active |
| O=C(O)c1cc2cc(I)cc(I)c2oc1=O | 17.8 | > 5.6 | Not Active | – |

From ChEMBL document CHEMBL1828496 (Eur J Med Chem, 2011)
